Biological target: T1, AsPC-1 HiBiT-KRASG12D (Homo sapiens, UniProt P01116, G12D)
T1 construct: insert the HiBiT tag onto the N-terminus of one or more of the endogenous KRAS alleles; endogenous in cells; host or cells: AsPC-1 (ATCC CRL-1682), CRISPR-Cas9 knock-in clone, one tagged allele
Assay: HiBiT degradation assay (G12D), AsPC-1 HiBiT-KRASG12D cells
Type: cell-based
Details: 24 hours treatment; for Dmax: ASPC1, AsPC-1 HiBiT-KRASG12D cells, maximum degradation observed; for DC50: AsPC-1 HiBiT-KRASG12D cells, HiBiT luminescence
Summary of the method: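 Steps: treat HiBiT-KRASG12D AsPC-1 cells with compound for 24 hours; add alamar blue to 1× and incubate 4 hours to assess viability; wash with PBS; add HiBiT lytic detection reagent, incubate 45 minutes at room temperature; read luminescence. Viability fluorescence is normalized to DMSO wells.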

T1 sequence (P01116 1-188 isoform P01116-2 G12D): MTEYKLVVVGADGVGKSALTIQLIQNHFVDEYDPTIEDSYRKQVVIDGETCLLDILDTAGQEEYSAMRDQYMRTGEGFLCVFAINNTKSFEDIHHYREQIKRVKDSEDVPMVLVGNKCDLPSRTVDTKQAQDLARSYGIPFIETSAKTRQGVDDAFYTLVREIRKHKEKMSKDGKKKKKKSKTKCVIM

| DC50 [nM] | SMILES | Dmax [%] |
| --- | --- | --- |
| < 600 | CCc1cccc2cc(O)cc(-c3ncc4c(N5CCCCCC5)nc(OC[C@]56CCCN5[C@H](COC(=O)N5CCC(Oc7cc([C@H](C(=O)N8C[C@H](O)C[C@H]8C(=O)N[C@@H](C)c8ccc(-c9scnc9C)cc8)C(C)C)on7)CC5)CC6)nc4c3F)c12 [Compound 286, [(3S,8R)-8-[[4-(azepan-1-yl)-7-(8-ethyl-3-hydroxy-1-naphthyl)-8-fluoro-pyrido[4,3-d]pyrimidin-2-yl]oxymethyl]-1,2,3,5,6,7-hexahydropyrrolizin-3-yl]methyl 4-[5-[(1R)-1-[(2S,4R)-4-hydroxy-2-[[(1S)-1-[4-(4-methylthiazol-5-yl)phenyl]ethyl]carbamoyl]pyrrolidine-1-carbonyl]-2-methyl-propyl]isoxazol-3-yl]oxypiperidine-1-carboxylate] | 80 to 100 |
| > 3000 | CCc1cccc2cc(O)cc(-c3ncc4c(N5CC6CCC(C5)N6)nc(OCCN5CCN(c6cc([C@@H](C(=O)N7C[C@H](O)C[C@H]7C(=O)N[C@@H](C)c7ccc(-c8scnc8C)cc7)C(C)C)on6)CC5)nc4c3F)c12 (relative stereo) [Compound 136, (2S,4R)-1-[(2R*)-2-[3-(4-{2-[(4-{3,8-diazabicyclo[3.2.1]octan-3-yl}-7-(8-ethyl-3-hydroxynaphthalen-1-yl)-8-fluoropyrido[4,3-d]pyrimidin-2-yl)oxy]ethyl}piperazin-1-yl)-1,2-oxazol-5-yl]-3-methylbutanoyl]-4-hydroxy-N-[(1S)-1-[4-(4-methyl-1,3-thiazol-5-yl)phenyl]ethyl]pyrrolidine-2-carboxamide] |  |
| > 3000 | CCc1cccc2cc(O)cc(-c3ncc4c(N5CC6CCC(C5)N6)nc(N5CCC(CN6CCC(CC7CN(c8cc([C@H](C(=O)N9C[C@H](O)C[C@H]9C(=O)N[C@@H](C)c9ccc(-c%10scnc%10C)cc9)C(C)C)on8)C7)CC6)CC5)nc4c3F)c12 [Compound 192, (2S,4R)-1-[(2R)-2-(3-{3-[(1-{[1-(4-{3,8-diazabicyclo[3.2.1]octan-3-yl}-7-(8-ethyl-3-hydroxynaphthalen-1-yl)-8-fluoropyrido[4,3-d]pyrimidin-2-yl)piperidin-4-yl]methyl}piperidin-4-yl)methyl]azetidin-1-yl}-1,2-oxazol-5-yl)-3-methylbutanoyl]-4-hydroxy-N-[(1S)-1-[4-(4-methyl-1,3-thiazol-5-yl)phenyl]ethyl]pyrrolidine-2-carboxamide] |  |

| SMILES | DC50 [nM] | Dmax [%] |
| --- | --- | --- |
| CCc1cccc2cc(O)cc(-c3ncc4c(N5CC6CCC(C5)N6)nc(OCCN5CCC(O)(CC6CCN(c7cc([C@H](C(=O)N8C[C@H](O)C[C@H]8C(=O)N[C@@H](C)c8ccc(-c9scnc9C)cc8)C(C)C)on7)CC6)CC5)nc4c3F)c12 [Compound 204, (2S,4R)-1-[(2R)-2-(3-{4-[(1-{2-[(4-{3,8-diazabicyclo[3.2.1]octan-3-yl}-7-(8-ethyl-3-hydroxynaphthalen-1-yl)-8-fluoropyrido[4,3-d]pyrimidin-2-yl)oxy]ethyl}-4-hydroxypiperidin-4-yl)methyl]piperidin-1-yl}-1,2-oxazol-5-yl)-3-methylbutanoyl]-4-hydroxy-N-[(1S)-1-[4-(4-methyl-1,3-thiazol-5-yl)phenyl]ethyl]pyrrolidine-2-carboxamide] | < 600 | 80 to 100 |
| C#Cc1c(F)ccc2cc(O)cc(-c3ncc4c(N5CC6CCC(C5)N6)nc(OCCN5CC[C@H]6CN(c7cc([C@H](C(=O)N8C[C@H](O)C[C@H]8C(=O)N[C@@H](C)c8ccc(-c9scnc9C)cc8)C(C)C)on7)C[C@H]6C5)nc4c3F)c12 [Compound 183, (2S,4R)-1-[(2R)-2-{3-[(3aR,7aR)-5-{2-[(4-{3,8-diazabicyclo[3.2.1]octan-3-yl}-7-(8-ethynyl-7-fluoro-3-hydroxynaphthalen-1-yl)-8-fluoropyrido[4,3-d]pyrimidin-2-yl)oxy]ethyl}-octahydro-1H-pyrrolo[3,4-c]pyridin-2-yl]-1,2-oxazol-5-yl}-3-methylbutanoyl]-4-hydroxy-N-[(1S)-1-[4-(4-methyl-1,3-thiazol-5-yl)phenyl]ethyl]pyrrolidine-2-carboxamide] | < 600 | 80 to 100 |
